The values below come from ChEMBL document CHEMBL3244339, “Antitumor 1-(X-aryl)-3,3-dialkyltriazenes. 1. Quantitative structure-activity relationships vs. L1210 leukemia in mice” (J Med Chem, 1978).

The source made the active and inactive calls. The rule behind the calls is not given here.

The species named for one data set is Mus musculus. The data set is described as follows: Toxicity in mouse L1210 cells allografted mouse assessed as mortality up to 5 days. Conditions: l1210, 120 h. Type of data set: organism-based.
Take `CN(CC#N)/N=N/c1ccc(C(N)=O)cc1`: the Activity result is listed as “Toxic”. The same measure, in the same setting: to `CNN(C)/N=N/c1ccc(C(N)=O)cc1` belongs “Toxic”; to `C=CCN(CC=C)/N=N/c1ccc(C(N)=O)cc1`, “Toxic”. In the case of `CN(CCO)/N=N/c1ccccc1C#N`, the Activity result is “Toxic”. As to `CN(/N=N/c1ccccc1C(=O)O)C1CCCCC1`, the Activity result is given as “Toxic”. Same read-out and setting: with `CC(=O)c1ccc(/N=N/N(C)C)cc1` the entry was “Toxic”. Still for that read-out and setting: to `CN(C)/N=N/c1ccc(Cl)cc1C(N)=O` belongs “Toxic”; to `CN(C)/N=N/c1ccc([N+](=O)[O-])cc1`, “Toxic”; to `CN/N=N/c1ccc(C)cc1`, “Toxic”.

As to `CON(C)/N=N/c1ccc(C(N)=O)cc1`, the Activity result is reported as “Toxic”. Still for that read-out and setting: to `CN(C)/N=N/c1ccc(Cl)cc1` belongs “Toxic”. Turning to `COc1ccc(/N=N/N(C)C)c(C(=O)O)c1`, the Activity entry is listed as “Toxic”. Take `CN(CCO)/N=N/c1ccccc1Cl`: the Activity result is “Toxic”. As for `CN(C)/N=N/c1ccc(C(F)(F)F)cc1`, the Activity entry is on record as “Toxic”. Turning to `CN(C)/N=N/c1cccc(NC(N)=O)c1`, the Activity entry was “Toxic”. Same read-out and setting: with `CONC(=O)c1ccccc1/N=N/N(C)C` the entry was “Toxic”.

Consider `CN(C)/N=N/c1cccc(Cl)c1`, for which the Activity result is “Toxic”.

Tested on in the next data set: not listed separately
In words: Distribution coefficient, log P of the compound. Type of data set: physicochemical. Conditions: octanol/water.
In the case of `CN(C)/N=N/c1ccccc1C(=O)NCC#N`, the logP is on record as 1.79.

Molecule `CN(C)/N=N/c1cc(C(N)=O)cc(C(N)=O)c1` had a lipophilicity (logP) of 0.22. The molecule `CN(C)/N=N/c1cc(C#N)cc(C#N)c1` showed a log partition coefficient (logP) of 2.18. Same read-out and setting: with `CCOC(=O)c1[nH]cnc1/N=N/N(C)C` the figure was 0.44; with `CN(C)/N=N/c1ccc(S(N)(=O)=O)cc1`, 0.98; with `COc1ccc(C(N)=O)cc1/N=N/N(C)C`, 0.44. The same measure, in the same setting: with `C=CCN(C)/N=N/c1ccc(C(N)=O)cc1` the figure was 2.09. The same measure, in the same setting: to `CN(C)/N=N/c1ccccc1C(=O)NCC(N)=O` belongs 1.17; to `CNC(=O)c1ccccc1/N=N/N(C)C`, 1.83; to `CN(C)/N=N/c1ccc(NC(N)=O)cc1`, 1.25.

The data set is the same for the next values; noted with them: octanol/water; read-out: logP.
In the case of `CN(C)/N=N/c1n[nH]cc1C(N)=O`, the lipophilicity (logP) was -0.12. The same measure, in the same setting: with `CN(Cc1ccccc1)/N=N/c1nc[nH]c1C(N)=O` the figure was 1.54.

The test system of a further data set is L1210. In words: Antitumor activity against mouse L1210 cells allografted in mouse assessed as increase of host lifespan. Type of data set: functional.
Conditions: not given
As for `C=CCN(C)/N=N/c1ccccc1C(N)=O`, the “log(1/C)” value is 3.43.

As for `COc1ccc(/N=N/N(C)C(=O)c2ccccc2)cc1`, the “log(1/C)” value turned out to be 3.05. `CN(C)/N=N/c1ccccc1C(=O)NCC#N`: the “log(1/C)” value was found to be 3.22. On the same count and under the same terms, with `CCOC(=O)c1ccc(/N=N/N(C)CC)cc1` the figure was 3.01. The same measure, in the same setting: with `CN(C)/N=N/c1c[nH]nc1C(N)=O` the figure was 3.42. Consider `C=CCN(C)/N=N/c1ccc(NC(N)=O)cc1`, for which the “log(1/C)” value was found to be 3.77.

With `CN(Cc1ccccc1)/N=N/c1ccccc1`, the “log(1/C)” value worked out at 3.03.

On to `CCCCCCCCN(C)/N=N/c1ccc(Cl)cc1C(=O)O`, for which the “log(1/C)” value is given as 3.14. Same read-out and setting: to `CN(C)/N=N/c1n[nH]cc1C(N)=O` belongs 3.49.

Take `CN(C)/N=N/c1ccc(S(N)(=O)=O)cc1C(N)=O`: the “log(1/C)” value is recorded as 3.32.

Consider `CN(C)/N=N/c1cc(C(N)=O)cc(C(N)=O)c1`, for which the “log(1/C)” value is listed as 3.27. In the case of `CN(CCO)/N=N/c1ccccc1C(N)=O`, the “log(1/C)” value is reported as 3.07. As for `CCN(C)/N=N/c1ccc(NC(N)=O)cc1`, the “log(1/C)” value worked out at 3.87. On to `CN(C)/N=N/c1c(Cl)cc(Cl)cc1C(N)=O`, for which the “log(1/C)” value worked out at 3.14. The same measure, in the same setting: with `CN(C)/N=N/c1ccc(NC=O)cc1` the figure was 3.85.

As for `CCOC(=O)c1[nH]cnc1/N=N/N(C)CCO`, the “log(1/C)” value stood at 3.38. On the same count and under the same terms, with `CN(C)/N=N/c1cccnc1` the figure was 3.46; with `CN(C)/N=N/c1ccc(C(=O)O)cc1`, 3.22; with `CCN(C)/N=N/c1ccc(C(N)=O)cc1`, 3.66. As to `CN(C)/N=N/c1cc(C#N)cc(C#N)c1`, the “log(1/C)” value came to 2.78. The same measure, in the same setting: to `CN(CCc1ccccc1)/N=N/c1n[nH]cc1C(N)=O` belongs 3.52. The same measure, in the same setting: to `C#CCN(C)/N=N/c1nc[nH]c1C(N)=O` belongs 3.61. Still for that read-out and setting: to `CCCCCCCCN(C)/N=N/c1ccc(C(N)=O)cc1` belongs 2.84; to `CN(/N=N/c1nc[nH]c1C(N)=O)c1cccs1`, 3.87. As to `CC(=O)c1cccc(/N=N/N(C)C)c1`, the “log(1/C)” value was determined as 3.58. Same read-out and setting: with `CCOC(=O)c1[nH]cnc1/N=N/N(C)C` the figure was 3.98; with `CCCc1nc(/N=N/N(C)C)c(C(N)=O)[nH]1`, 3.42. Still for that read-out and setting: to `C=CCN(C)/N=N/c1n[nH]cc1C(N)=O` belongs 3.77; to `CN(C)/N=N/c1ccccc1[N+](=O)[O-]`, 3.28. Still for that read-out and setting: with `CCOC(=O)c1c[nH]nc1/N=N/N(C)C` the figure was 3.35; with `COc1ccc(CN(C)/N=N/c2ccc(C#N)cc2)cc1`, 2.72; with `CN(C)/N=N/c1ccc(S(N)(=O)=O)cc1`, 3.6. Consider `COC(=O)c1[nH]cnc1/N=N/N(C)C`, for which the “log(1/C)” value worked out at 3.86. On the same count and under the same terms, to `CCCCOC(=O)c1[nH]cnc1/N=N/N(C)C` belongs 3.53; to `CN(/N=N/c1ccc(C(N)=O)cc1)c1cccs1`, 2.9. For `CN/N=N/c1nc[nH]c1C(=O)N1CCCC1`, the “log(1/C)” value was found to be 3.28. On the same count and under the same terms, to `CN(C)/N=N/c1c(F)cccc1F` belongs 3.63; to `Cc1[nH]nc(C(N)=O)c1/N=N/N(C)C`, 3.84; to `CN(C)/N=N/c1cccc(C(N)=O)c1`, 3.8. Still for that read-out and setting: with `COC(=O)c1cccc(/N=N/N(C)C)c1` the figure was 3.42; with `CN(CCO)/N=N/c1n[nH]cc1C(N)=O`, 3.1; with `CN(C)/N=N/c1ccc(CCCC(=O)NN)cc1`, 3.6. The same measure, in the same setting: with `CCCCCN(C)/N=N/c1nc[nH]c1C(N)=O` the figure was 3.58; with `CCCCN(C)/N=N/c1c(C(N)=O)n[nH]c1C`, 3.83; with `CC(C)CN(C)/N=N/c1nc[nH]c1C(N)=O`, 3.51. `CN(Cc1ccccc1)/N=N/c1nc[nH]c1C(N)=O`: the “log(1/C)” value is given as 3.43. The same measure, in the same setting: to `CN(C)/N=N/c1ccc(S(=O)(=O)Nc2ncccn2)cc1` belongs 3.74; to `CN(C)/N=N/c1ccc([N+](=O)[O-])cc1C(N)=O`, 3.26; to `CN(C)/N=N/c1[nH]cnc1C(N)=O` [DACARBAZINE], 3.29. On the same count and under the same terms, to `CCCCN(C)/N=N/c1n[nH]cc1C(N)=O` belongs 3.81. Still for that read-out and setting: with `CCCCN(C)/N=N/c1ccccc1C(=O)O` the figure was 3.15; with `CN(C)/N=N/c1ccc(C(N)=O)cc1C(N)=O`, 3.27. Turning to `COC(=O)c1ccc(/N=N/N(C)C)cc1`, the “log(1/C)” value is 3.2.

For `CCCN(C)/N=N/c1n[nH]cc1C(N)=O`, the “log(1/C)” value is recorded as 3.7. The same measure, in the same setting: to `CN/N=N/c1nc[nH]c1C(=O)OC` belongs 3.35.

Take `CN(CCO)/N=N/c1[nH]cnc1C(N)=O`: the “log(1/C)” value came out at 3.12. The same measure, in the same setting: to `CCOC(=O)c1[nH]c(-c2ccccc2)nc1/N=N/N(C)C` belongs 3.48. The same measure, in the same setting: to `COc1ccc(C(N)=O)cc1/N=N/N(C)C` belongs 3.95; to `CCCN(C)/N=N/c1ccccc1C(N)=O`, 3.26; to `CCNC(=O)c1ccccc1/N=N/N(C)C`, 2.92. Same read-out and setting: with `CC(=O)Nc1ccc(/N=N/N(C)C)cc1` the figure was 4.04; with `CCCCN(C)/N=N/c1ccc([N+](=O)[O-])cc1C(N)=O`, 3.08.

Take `CCCCN(C)/N=N/c1n[nH]cc1C(=O)OCC`: the “log(1/C)” value stood at 3.16. Regarding `COC(=O)c1ccccc1/N=N/N(C)CC(C)C`, the “log(1/C)” value stood at 3.12.

Consider `CN(C)/N=N/c1ccc(C#N)cc1C(N)=O`, for which the “log(1/C)” value was 3.46. On the same count and under the same terms, with `C=CCN(C)/N=N/c1ccc(C(N)=O)cc1` the figure was 3.38.

On to `COC(=O)c1n[nH]c(C(C)C)c1/N=N/N(C)C`, for which the “log(1/C)” value is given as 3.3.

As to `CC(C)N(C)/N=N/c1ccc(C(N)=O)cc1`, the “log(1/C)” value is on record as 3.17. On to `CN(C)/N=N/c1ccccc1C(=O)O`, for which the “log(1/C)” value is 3.64. Same read-out and setting: with `CCCCN(C)/N=N/c1ccc(CCC(=O)OCC)cc1` the figure was 3.02; with `CCCCN(C)/N=N/c1ccccc1C(N)=O`, 3.1; with `CN(/N=N/c1ccccc1C(=O)NN)C1CCCCC1`, 2.99. Still for that read-out and setting: to `CCOC(=O)c1nc(C)[nH]c1/N=N/N(C)C` belongs 3.35; to `CN(C)/N=N/c1ccc(C(N)=O)cc1`, 3.51. On the same count and under the same terms, with `Cc1cccc(/N=N/N(C)C)c1` the figure was 3.4; with `CN(C)/N=N/c1ccccc1C(=O)NCC(N)=O`, 3.25. On to `CN(C)/N=N/c1nc(Cc2ccccc2)[nH]c1C(N)=O`, for which the “log(1/C)” value worked out at 2.89. Same read-out and setting: to `CNC(=O)c1ccccc1/N=N/N(C)C` belongs 3.25. With `CN(C)/N=N/c1cc(Cl)cc(C(N)=O)c1Cl`, the “log(1/C)” value is on record as 3.04. The same measure, in the same setting: with `CCCCCCCCOC(=O)c1[nH]cnc1/N=N/N(C)C` the figure was 3.06; with `CCCN(C)/N=N/c1nc[nH]c1C(N)=O`, 3.58; with `CCOC(=O)c1ccc(/N=N/N(C)CC(C)C)cc1`, 2.8.

With `Cc1ccc(/N=N/N(C)C)cc1`, the “log(1/C)” value stood at 3.76. Same read-out and setting: to `Cc1nc(/N=N/N(C)C)c(C(N)=O)[nH]1` belongs 3.06; to `CCCCN(C)/N=N/c1[nH]cnc1C(N)=O`, 3.54; to `CCOC(=O)CCCc1ccc(/N=N/N(C)C)cc1`, 3.54. Still for that read-out and setting: to `CN(C)/N=N/c1ccc(NC(N)=O)cc1` belongs 3.97; to `CN(CCc1ccccc1)/N=N/c1nc[nH]c1C(N)=O`, 3.49; to `CC(C)Cc1nc(/N=N/N(C)C)c(C(N)=O)[nH]1`, 3.53. On the same count and under the same terms, to `C/N=N/Nc1ccccc1` belongs 3.6.

A further data set concerns L1210. The data set is described as follows: Antitumor activity against mouse L1210 cells allografted in mouse assessed as increase of host lifespan of 110 days. Type of data set: functional, cell-based.
Conditions: not given
With `CN(C)/N=N/c1ccccc1C(=O)NCC(F)(F)F`, the outcome was inactive. Consider `CN(C)/N=N/c1ccc(SC#N)cc1C(N)=O`, for which the result was inactive. On the same count and under the same terms, to `CN(C)/N=N/c1ccc([N+](=O)[O-])cc1C(=O)O` belongs “inactive”; to `CN(C)/N=N/c1ccccc1C#N`, “inactive”.
